# Reference: publication PMC8468439, “Oxazinethione Derivatives as a Precursor to Pyrazolone and Pyrimidine Derivatives: Synthesis, Biological Activities, Molecular Modeling, ADME, and Molecular Dynamics Studies” (Molecules, 2021)
# How the values were obtained:
# A. flavus = assay: Antimicrobial screening, hole-plate and filter disc; assay type: cell-based, Aspergillus flavus; set-up: key to A (activity): (-) no activity; (+) mild activity with diameter zone of (0.5–0.7 cm); (++) moderate activity with diameter zone of (1.1–1.2 cm); (+++) marked with diameter zone of (1.6–1.8 cm); conditions: for A (activity): zone width of inhibition, compounds dissolved in 10% acetone
# Experimental: (§1) All investigations were executed at the Biology department, Faculty of Science, Benha University, Egypt. The antimicrobial activities of all the synthesized molecules were determined in vitro, using the hole-plate and filter disc methodologies. The investigated compounds were dissolved in 10% acetone (v/v). The width of the inhibition zone indicated the potency of the antimicrobial activity: (-) no antimicrobial activity, (+) mild activity with the diameter of the zones equal to (0.5–0.7 cm), (++) moderate activity with the diameter of the zones equal to (1.1–1.2 cm), and (+++) marked activity with the diameter of the zones equal to (1.6–1.8 cm).
# F. moniliform = assay: as above; assay type: cell-based, Fusarium moniliform; conditions: for A (activity): zone width of inhibition, compounds dissolved in 10% acetone
# Experimental: as §1
# LCC-MK2 normal cell line = assay: SRB cytotoxicity assay; assay type: cell-based; conditions: 72 h, 3 days
# Experimental: (§2) The cells were supplied by the Egyptian Holding Company for Biological Products and Vaccines (VACSERA) and then kept in the tissue culture unit. The growth of the cells was affected in RPMI-1640 medium, supplemented with 10% heat-inactivated FBS, 50 units/mL of penicillin, and […] of streptomycin, and maintained in a humidified atmosphere with 5% carbon dioxide. The cells were maintained as monolayer cultures by serial sub-culturing, with cell culture reagents obtained from Lonza (Basel, Switzerland). The antitumor activities of the complexes were assessed against three cell lines MCF-7 for breast cancer, Ovcar-3 for ovarian cancer, and Hela for cervical cancer. In addition, all the results obtained were compared and validated to the LCC-MK2 normal cell line. In the literature, the sulforhodamine B (SRB) assay method was applied to determine the cytotoxicity, as described in [39]. Exponentially growing cells were collected using 0.25% Trypsin-EDTA and seeded in 96-well plates at 1000–2000 cells/well in RBMI-1640-supplemented medium. The cells were kept in the medium for 24 h and then incubated for 3 days with various concentrations of the copper complexes. Following 3 days of treatment, the cells were fixed with 10% trichloroethanoic acid for 1 h at 4 °C. Wells were stained for 10 min at room temperature with 0.4% SRBC dissolved in 1% acetic acid. The plates were air-dried for 24 h, and the dye was dissolved in Tris-HCl for 5 min with shaking at 1600 rpm. An ELISA microplate reader (ChroMate-4300, FL, USA) was used to assess each well’s optical density (O.D.) at 564 nm. The IC50 values were calculated from a Boltzmann sigmoidal concentration-response curve using the nonlinear regression fitting models (Graph Pad, Prism Version 9).
# Hela for cervical cancer = assay: SRB cytotoxicity assay; assay type: cell-based; conditions: Homo sapiens, 72 h, 3 days
# Experimental: as §2
# MCF-7 for breast cancer = assay: SRB cytotoxicity assay; assay type: cell-based; conditions: Homo sapiens, MCF7, 72 h, 3 days
# Experimental: as §2
# [1] = tested on: Ovcar-3 for ovarian cancer; assay: SRB cytotoxicity assay; assay type: cell-based; conditions: Homo sapiens, 72 h, 3 days
# Experimental: as §2
# E. coli = assay: Antimicrobial screening, hole-plate and filter disc; assay type: cell-based, Escherichia coli; set-up: key to A (activity): (-) no activity; (+) mild activity with diameter zone of (0.5–0.7 cm); (++) moderate activity with diameter zone of (1.1–1.2 cm); (+++) marked with diameter zone of (1.6–1.8 cm); conditions: for A (activity): zone width of inhibition, compounds dissolved in 10% acetone
# Experimental: as §1
# S. aureus = assay: as above; assay type: cell-based, Staphylococcus aureus; set-up: key to A (activity): (-) no activity; (+) mild activity with diameter zone of (0.5–0.7 cm); (++) moderate activity with diameter zone of (1.1–1.2 cm); (+++) marked with diameter zone of (1.6–1.8 cm); conditions: for A (activity): zone width of inhibition, compounds dissolved in 10% acetone
# Experimental: as §1
SMILES,Mic (minimum inhibitory concentration) (A. flavus),A (activity) (A. flavus),Mic (minimum inhibitory concentration) (F. moniliform),A (activity) (F. moniliform),IC50 (LCC-MK2 normal cell line),IC50 (Hela for cervical cancer),IC50 (MCF-7 for breast cancer),IC50 [1],Mic (minimum inhibitory concentration) (E. coli),A (activity) (E. coli),A (activity) (S. aureus),Mic (minimum inhibitory concentration) (S. aureus),melting point
N#CC12C(=N)NC(=O)N=C1N=C(CN1C(=O)c3c(Br)c(Br)c(Br)c(Br)c3C1=O)OC2c1ccccc1 (stereo not shown) [Compound 4a],250,+++ ((+++) marked with diameter zone of (1.6–1.8 cm)),250,+ ((+) mild activity with diameter zone of (0.5–0.7 cm)),68.9 µg/mL,12.9 µg/mL,21.7 µg/mL,15.9 µg/mL,250,+ ((+) mild activity with diameter zone of (0.5–0.7 cm)),-,,
N#CC12C(=O)NC(=S)N=C1N=C(CN1C(=O)c3c(Br)c(Br)c(Br)c(Br)c3C1=O)OC2c1ccccc1 (stereo not shown) [Compound 2b],,-,125,+ ((+) mild activity with diameter zone of (0.5–0.7 cm)),89.3 µg/mL,22.8 µg/mL,13.8 µg/mL,15.2 µg/mL,250,+ ((+) mild activity with diameter zone of (0.5–0.7 cm)),++ ((++) moderate activity with diameter zone of (1.1–1.2 cm)),250,
N#CC12C(=O)NC(=O)N=C1N=C(CN1C(=O)c3c(Br)c(Br)c(Br)c(Br)c3C1=O)OC2c1ccccc1 (stereo not shown) [Compound 2a],,-,125,+ ((+) mild activity with diameter zone of (0.5–0.7 cm)),,,,,,-,+ ((+) mild activity with diameter zone of (0.5–0.7 cm)),125,98 to 100 °C
"N#CC12C(=N)NN=C1N=C(CN1C(=O)c3c(Br)c(Br)c(Br)c(Br)c3C1=O)OC2c1ccccc1 (stereo not shown) [Compound 3, 2-(tetrabromophalimidmethyl)-6-phenyl-5-yano-1,3-oxazino[4,5-d]-1,2-pyrazole2[H]-3-one]",125,+ ((+) mild activity with diameter zone of (0.5–0.7 cm)),125,+ ((+) mild activity with diameter zone of (0.5–0.7 cm)),206 µg/mL,9.14 µg/mL,15.5 µg/mL,14.6 µg/mL,125,+ ((+) mild activity with diameter zone of (0.5–0.7 cm)),+ ((+) mild activity with diameter zone of (0.5–0.7 cm)),125,
"N#CC12C(=O)NN=C1N=C(CN1C(=O)c3c(Br)c(Br)c(Br)c(Br)c3C1=O)OC2c1ccccc1 (stereo not shown) [Compound 5, 2-(tetrabromophalimidmethyl)-6-phenyl-5-yano-1,3-oxazino[4,5-d]-1,2-pyrazole2[H]-3-imide]",250,+++ ((+++) marked with diameter zone of (1.6–1.8 cm)),250,+ ((+) mild activity with diameter zone of (0.5–0.7 cm)),191 µg/mL,5.69 µg/mL,12.3 µg/mL,10.1 µg/mL,250,++ ((++) moderate activity with diameter zone of (1.1–1.2 cm)),++ ((++) moderate activity with diameter zone of (1.1–1.2 cm)),250,
N#CC12C(=N)NC(=S)N=C1N=C(CN1C(=O)c3c(Br)c(Br)c(Br)c(Br)c3C1=O)OC2c1ccccc1 (stereo not shown) [Compound 4b],,-,125,+ ((+) mild activity with diameter zone of (0.5–0.7 cm)),170 µg/mL,14.8 µg/mL,16.6 µg/mL,11.2 µg/mL,250,+ ((+) mild activity with diameter zone of (0.5–0.7 cm)),++ ((++) moderate activity with diameter zone of (1.1–1.2 cm)),250,
